Measured values reported in US20230348459A1, “PYRROLIDINE COMPOUND AND USE THEREOF” (SIMCERE PHARMACEUTICAL CO., LTD., priority 2020, published 2023).
Like-named read-outs stand apart in the source and are kept apart here.

Tests used:
[1] = Blood-brain barrier (BBB) permeability in rats; type: in vivo, SD rats; conditions: for Kp at 2 h / concentration at 2 h: rat, female SD rats, 100 mg/kg QD, 2 h after administration; for Kp at 2 h: brain/plasma, read-out: B/P ratio
Method: Six female SD rats (200-300 g, 6-8 weeks) were randomized into 2 groups, 3 rats/group. Each rat was given the compounds of the present invention, and the vehicle was 0.5% methylcellulose aqueous solution. Animals were fed with water as usual and fasted overnight before the experiment, and feeding was resumed four hours after administration. Plasma and brain tissue were collected from rats of each group 2 h after administration. The whole blood sample collected was placed in a K2EDTA anticoagulation tube and centrifuged for 5 min (12,000 rpm, 4° C.) and then the plasma was taken for later detection. After tissue collection, the tissue was dried with filter paper, and the samples were stored in a -80° C. freezer for later detection.
10 µL of the rat plasma sample was taken and 150 µL of acetonitrile solvent (wherein an internal standard compound was contained) was added to precipitate proteins. After the mixture was vortexed for 5 min, centrifugation (14,000 rpm) was performed for 5 min. The supernatant was diluted 2-fold with water containing 0.1% (v/v) FA and injected into the LC-MS/MS system (AB Sciex Triple Quad 6500+) for the quantitative detection. For the 10x diluted samples, 2 µL of the sample was taken and 18 µL of blank plasma was added. After the mixture was vortexed for 0.5 min, 300 µL of acetonitrile solvent (wherein an internal standard compound was contained) was added to precipitate proteins. The other processing steps were identical to those for the samples not diluted. A calibration standard curve was prepared in SD rat plasma along with plasma quality control samples to determine the plasma concentration.
Brain tissue samples from rat were first homogenized with 4 times the mass volume of PBS homogenate. 20 µL of brain tissue homogenate sample was taken, and 20 µL of blank mouse plasma was added. The mixture was diluted and mixed uniformly, and 600 µL of acetonitrile solvent (wherein an internal standard compound was contained) was added to precipitate proteins. After the mixture was vortexed for 5 min, centrifugation (14,000 rpm) was performed for 5 min. The supernatant was diluted 2-fold with water containing 0.1% (v/v) FA and injected into the LC-MS/MS system (AB Sciex Triple Quad 6500+) for the quantitative detection.

MCF-7 subcutaneous tumor = experiment: Growth inhibition in MCF-7 subcutaneous tumor model in mice; type: in vivo, NPG mice; conditions: for TGI: 3 weeks; for Average tumor volume Day 0: Day 0 (grouping); for Effect on body weight of mice: at the doses tried
Method: Cell inoculation: 0.1 ml/(containing 1 × 10^7) MCF-7 cell suspension (volume ratio of D-PBS : Matrigel = 1 : 1) was inoculated subcutaneously on the right back of each mouse, and the mice were inoculated subcutaneously with 17β-estradiol tablets four days before the cell inoculation.
Administration: The compound # Example 1 was administered at a dose of 1, 3, or 10 mg/kg, orally (PO), once daily (QD) for 3 weeks. The compound # Example 2 was administered at a dose of 10 mg/kg, orally (PO), once daily (QD) for 3 weeks. 8 mice were in the vehicle group and 6 mice were in the administration group.
The diameter of the tumor was measured with vernier calipers twice weekly. The calculation formula of tumor volume was V = 0.5a × b^2, wherein a and b represented the long and short diameters of the tumor, respectively. The body weights of the mice were weighed twice weekly.
The tumor-inhibiting efficacy of the compound was evaluated using tumor growth inhibition (TGI) (%).

MCF-7 intracranial tumor = experiment: Growth inhibition in MCF-7 intracranial tumor model in mice; conditions: 30 mg/kg PO once daily
Method: Animal information: NPG mice (female, 6-8 weeks, body weight: about 17-29 g) were purchased from Beijing Vitalstar Biotechnology Co., Ltd. The mice were fed in SPF environment and each cage position was individually ventilated.
Cell culture: The human breast cancer MCF-7 cell line was cultured in vitro in EMEM (cell culture medium) supplemented with 10% fetal bovine serum, 1% Pen Strep and 10 µg/ml recombinant human insulin in a 37° C., 5% CO2 incubator. Conventional digestion treatment with 0.25% trypsin-EDTA digestion solution was carried out twice weekly for passage. When the cell saturation was 80%-90%, and the number reached the requirement, the cells were collected and counted.
Cell inoculation: 15 µl/(containing 2 × 10^6) MCF-7 cell suspension was inoculated into the brain of mice using a stereotaxic apparatus, a micro-injection pump and a miniature handheld cranial drill, and the mice were subcutaneously inoculated with 17β-estradiol tablets three days before the cell inoculation. On day 8 after cell inoculation, the mice were randomized into groups for administration according to the body weight thereof, and the day of grouping was Day 0.
11 mice were in the vehicle group and 8 mice were in the administration group. Mice in all groups were continuously administered until the mice died, which were euthanized due to poor state or the end of the experiment.
The body weight of the mice was measured twice weekly, and the survival status of the mice was observed.
At the end of the experiment on Day 48, all mice were euthanized.

[2] = brain, read-out: Drug concentration in brain
[3] = plasma, read-out: Drug concentration in plasma

Structure (SMILES)	Kp at 2 h [1]	concentration at 2 h [1, 2] [ng/g]	concentration at 2 h [1, 3] [ng/mL]	TGI (MCF-7 subcutaneous tumor; 10 mg/kg PO QD) [%]	Average tumor volume Day 0 (MCF-7 subcutaneous tumor; 10 mg/kg PO QD) [mm^3]	Average tumor volume Day 21 (MCF-7 subcutaneous tumor; 10 mg/kg PO QD) [mm^3]	Effect on body weight of mice (MCF-7 subcutaneous tumor)	Blood-brain barrier permeability (in words) ([1]; rats)	TGI (MCF-7 subcutaneous tumor; 1 mg/kg PO QD) [%]	Average tumor volume Day 0 (MCF-7 subcutaneous tumor; 1 mg/kg PO QD) [mm^3]	Average tumor volume Day 21 (MCF-7 subcutaneous tumor; 1 mg/kg PO QD) [mm^3]	TGI (MCF-7 subcutaneous tumor; 3 mg/kg PO QD) [%]	Average tumor volume Day 0 (MCF-7 subcutaneous tumor; 3 mg/kg PO QD) [mm^3]	Average tumor volume Day 21 (MCF-7 subcutaneous tumor; 3 mg/kg PO QD) [mm^3]	Tumor shrinkage (in words) (MCF-7 subcutaneous tumor; doses of 3 mg/kg and 10 mg/kg)	Effect on tumor growth (in words) (MCF-7 subcutaneous tumor; orally once daily at 1 mg/kg, 3 mg/kg or 10 mg/kg, P < 0.01)	Deaths in group (MCF-7 intracranial tumor; until Day 48)	Survival period vs solvent control or Fulvestrant (MCF-7 intracranial tumor; P < 0.01)
C[C@@H]1Cc2c([nH]c3ccccc23)C(c2c(F)cc(N[C@H]3CCN(CCCF)C3)cc2F)N1CC(F)(F)CO (stereo in doubt) [Example 7, 3-((1S,3R)-1-(2,6-difluoro-4-(((S)-1-(3-fluoropropyl)pyrrolidin-3-yl)amino)phenyl)-3-methyl-3,4-dihydro-1H-pyridino [3,4-b]indole-2(9H)-yl)-2,2-difluoropropane-1-ol]	0.28	703	2540	140.09	170	80	do not significantly affect the body weight											
C[C@@H]1Cc2c([nH]c3ccccc23)[C@@H](c2ccc(N[C@H]3CCN(CCCF)C3)cn2)N1CC(F)(F)F [Example 3, N-((S)-1-(3-fluoropropyl)pyrrolidin-3-yl)-6-((1S,3R)-3-methyl-2-(2,2,2-trifluoroethyl)-2,3,4,9-tetrahydro-1H-pyridino[3,4-b]indol-1-yl)pyridine-3-amine]	4.2	10600	2620	138.17	177	91	do not significantly affect the body weight	excellent blood-brain barrier permeability	89.08	183	207	114.71	169	136	shows an effect of shrinking tumor	significant inhibitory effects	No death case occurred	significantly prolonged
